Assay results as given in patent US20220110985A1, “NUTRITIONAL COMPOSITION COMPRISING 2'FUCOSYLLACTOSE AND 3'GALACTOSYLLACTOSE” (N.V. Nutricia, priority 2019, published 2022).
Marks after values point to notes of the source that are not given here.

What was measured:
Caco-2 cell monolayer = assay: DON-induced impairment of Caco-2 cell monolayer integrity (TEER, lucifer yellow flux); assay type: cell-based, human; settings: for effect on DON-induced loss of epithelial barrier integrity (TEER, LY flux), in words: 24 h pretreatment (GLs 0.75 wt. %; 2′-FL 1 mg/ml), then DON 4.2 μM 24 h
Experimental: Beta1,3′-galactosyl-lactose (beta3′-GL), beta1,4′-galactosyllactose (beta4′-GL) and beta1,6′-galactosyl-lactose (beta6′-GL) were obtained from Carbosynth (Berkshire, UK). Alpha1,3′-galactosyl-lactose (alpha3′-GL) was obtained from Elicityl (Crolles, France). Purified deoxydivalenol (DON) (D0156; Sigma Aldrich, St Luis, Mo., USA) was dissolved in pure ethanol and stored at −20° C. Human epithelial colorectal adenocarcinoma (Caco-2) cells were obtained from American […] (Code HTB-37) (Manasse, Va., USA, passage 90-102).
Caco-2 cells were used according to established methods. In brief: cells were cultured in Dulbecco's modified Eagle medium (DMEM) and seeded at a density of 0.3×10^5 cells into 0.3 cm^2 high pore density (0.4 μm) inserts with a polyethylene terephthalate membrane (BD Biosciences, Franklin Lakes, N.J., USA) placed in a 24-well plate. The Caco-2 cells were maintained in a humidified atmosphere of 95 air and 5% CO2 at 37° C.
Caco-2 cell monolayers were thus grown in a transwell system, which is a model for intestinal barrier function. The monolayers were pretreated for 24 h with different GLs, including beta3′-GL, alpha3′-GL, beta4′-GL and beta6′-GL in a concentration of 0.75 wt. % of the GL, before being exposed to the fungal toxin deoxynivalenol (DON), which is a trigger and model compound to impair intestinal barrier. DON was diluted to a final concentration of 4.2 μM in complete cell medium and added to the apical side as well as to the basolateral side of the transwell inserts. […] Incubation with DON was 24 h.
Measurements of the transepithelial electrical resistance (TEER) and lucifer yellow (LY) permeability were conducted to investigate barrier integrity. For TEER measurements a Millicel-ERS voltohmmeter connected to a pair of chopsticks electrodes was used to measure the TEER values. Results are expressed as a percentage of the initial value. For paracellular tracer flux assay the membrane impermeable lucifer yellow (LY) (Sigma, St Luis, Mo., USA) was added in a concentration of 16 μg/ml to the apical compartment in the transwell plate for 4 h, and the paracellular flux was determined by measuring the fluorescence intensity in the basolateral compartment with a spectrophotofluorimeter (FLUOstar Optima, BMG Labtech, Offenburg, Germany) set at excitation and emission wavelengths of 410 and 520 nm, respectively. Release of interleukin-8 (IL-8 or CXCL8), which is a typical marker for inflammation, was quantified in the medium of the apical side and the basolateral side of the Caco-2 transwell inserts in response to the treatments. CXCL8 concentrations were measured by using the human IL-8 ELISA assay (BD Biosciences, Pharmingem, San Diego, Calif., USA) according to manufacturer's instructions. For more details on materials and methods see Akbari et al, 2016, Eur J Nutr. 56(5):1919-1930.

[1] = test system: human peripheral blood mononuclear cells (PBMCs); assay: PBMC cell activity (WST-1); assay type: cell-based; settings: after 24 h; non-stimulated and CD3/CD28 stimulated conditions
Experimental: Isolation of PBMC from healthy donors: Human peripheral blood mononuclear cells (PBMC) from healthy donors were isolated from buffy coats (Sanquin, Amsterdam, the Netherlands). PBMC were obtained by centrifugation using Leucosep tubes (Greiner Bio-One). PBMC were collected and washed in PBS (Gibco, Thermo Fisher Technologies)+2% heat-inactivated FCS (Invitrogen), followed by hypotonic lysis of erythrocytes with sterile lysis buffer (0.15 M NH4Cl, 0.01 M KHCO3 and 0.1 mM EDTA, pH of 7.4 at 4° C., all from Merck, Darmstadt, Germany). After lysis, the PBMC were resuspended in freezing medium (70% RPMI 1640 medium (Gibco, Thermo Fisher Technologies) supplemented with 10% heat-inactivated FCS and 100 U/ml penicillin-streptomycin, 20% heat-inactivated FCS and 10% DMSO (Sigma)) and cryopreserved.
PBMC activation model: PBMC (0.2·10^6 cell/well) were cultured in 96-well flat bottom plates (Corning). For 24 hours the cells were pre-incubated with 2′-FL (Jennewein), 3′-GL (0-0.3% w/v; Carbosynth) or sodium butyrate (0.2 mM; Sigma Aldrich) and combinations thereof. Subsequently, the cells were CD3/CD28-activated (Pelicluster CD3 and Pelicluster CD28, Sanquin) for an additional 24 hours. After incubation, IFNγ was measured by ELISA in the supernatants (see below). To determine cell activity after stimulation, PBMC were incubated with cell proliferation reagent WST-1 (10 μl; Roche) and/or 10% Triton (5 μl; negative control). After 3 hours, absorbance was measured at OD450 nm and OD650 nm and cell activity was calculated according to manufacturer's instructions.

human PBMC, unstimulated = assay: Cytokine production of unstimulated PBMC (IL10, CCL20); assay type: cell-based
Source text: Isolation of PBMC from healthy donors: Human peripheral blood mononuclear cells (PBMC) from healthy donors were isolated from buffy coats (Sanquin, Amsterdam, the Netherlands). PBMC were obtained by centrifugation using Leucosep tubes (Greiner Bio-One). […] After lysis, the PBMC were resuspended in freezing medium (70% RPMI 1640 medium (Gibco, Thermo Fisher Technologies) supplemented with 10% heat-inactivated FCS and 100 U/ml penicillin-streptomycin, 20% heat-inactivated FCS and 10% DMSO (Sigma)) and cryopreserved. PBMC activation model: PBMC (0.2·10^6 cell/well) were cultured in 96-well flat bottom plates (Corning). For 24 hours the cells were pre-incubated with 2'-FL (Jennewein), 3'-GL (0-0.3% w/v; […] Sigma Aldrich) and combinations thereof. Subsequently, the cells were CD3/CD28-activated (Pelicluster CD3 and Pelicluster CD28, Sanquin) for an additional 24 hours. After incubation, IFNγ was measured by ELISA in the supernatants (see below). […] Roche) and/or 10% Triton (5 μl; negative control). […] Cytokine production of PBMC: PBMC were incubated with indicated reagents. After incubation, the supernatants were collected and IL2, IL6, IL10, IL13, IL21, TNFα, IFNγ, MIF, CCL1, CCL13, CCL17, CCL20, CCL22 and CXCL8-11 levels were measured by conducting a validated multiplex immunoassay based on Luminex technology (xMAP, Luminex Austin Tex. USA). Acquisition was conducted with the Biorad […] (Biorad laboratories, Hercules USA) in combination with xPONENT software version 4.2 (Luminex). Data was analyzed by 5-parametric curve fitting using Bio-Plex Manager software, version 6.1.1 (Biorad). After PBMC stimulation, cell culture supernatants were collected, after which cytokine responses were measured in order to test immune responsiveness of the cells. The levels of cytokines measured in stimulated conditions were corrected for the (low) levels of the cytokines measured in non-stimulated conditions. In addition, since each donor is reacting in its own efficiency onto the T cell stimulus, we calculated the individual index of cytokine response by dividing the intervention induced response by the basal stimulated response.

[2] = test system: T84 human intestinal epithelial cells; assay: T84 monolayer barrier integrity (TEER) with IL-4; assay type: cell-based; settings: butyric acid 4 mM, TEER increase relative to t=0
Experimental: T84 human intestinal epithelial cells are commonly used to study intestinal barrier integrity in vitro. T84 cells (ATCC, USA) were cultured on 12 mm transwell inserts (0.4 μm, Corning Costrar, USA) in DMEM-F12 glutamax with penicillin-streptomycin (100 IU/ml), supplemented with 5% FBS-Hl. T84 cells were used 14 days after reaching confluence. Monolayers of T84 cultured on transwell filters were pre-incubated for 48 h with or without butyrate. These samples were subsequently incubated for an additional 48 h in the presence of IL-4 (25 ng/ml). IL-4 was added to the basolateral compartment; medium and additives were changed every 24 h.
Epithelial barrier integrity was assessed by measuring transepithelial resistance (TEER; Ω×cm^2) with the epithelial volt-ohm meter (EVOM; World Precision Instruments, Germany).
Results are shown in Table 5 where relative TEER values are presented. The 48 h and 96 h column is the TEER increase relative to t=0 value. IL-4 treatment disrupted the intestinal barrier function; however in the presence of butyrate this disruption was ameliorated.

[3] = Caco-2 monolayer, DON 4.2 μM, 2′-FL 1 mg/ml

`CC1=C[C@H]2O[C@@H]3[C@H](O)C[C@](C)([C@@]2(CO)[C@H](O)C1=O)[C@]31CO1` [DON, deoxynivalenol] was tested, and the Lucifer yellow flux (Caco-2 cell monolayer; [3]) was 530.8 (3.975)*** ng/ml (cm^2xh) and the “TEER (% of initial value) Mean (s.e.)” value (Caco-2 cell monolayer; [3]) was 34.33 (1.088)*** % of initial value.
With `OC[C@H]1O[C@H](O[C@H]2[C@@H](O)[C@@H](CO)O[C@@H](O[C@H]3[C@H](O)[C@@H](O)C(O)O[C@@H]3CO)[C@@H]2O)[C@H](O)[C@@H](O)[C@H]1O` (stereo partly drawn) [alpha3′-GL, Gal (alpha 1-3)-Gal (beta 1-4)-Glc] the “effect on DON-induced loss of epithelial barrier integrity (TEER, LY flux), in words” value (from here on “effect on DON-induced loss”) (Caco-2 cell monolayer) was “did not prevent the DON-induced disrupted intestinal barrier”.
`OC[C@H]1O[C@@H](O[C@@H]2[C@H](O)[C@@H](O)[C@H](O[C@H]3[C@H](O)[C@@H](O)C(O)O[C@@H]3CO)O[C@@H]2CO)[C@H](O)[C@@H](O)[C@H]1O` (stereo partly drawn) [beta4′-GL, Gal (beta 1-4)-Gal (beta 1-4)-Glc] was tested, and the “effect on DON-induced loss” value (Caco-2 cell monolayer) was “did not show a significant effect”.
In the case of `OC[C@H]1O[C@@H](OC[C@H]2O[C@@H](O[C@H]3[C@H](O)[C@@H](O)C(O)O[C@@H]3CO)[C@H](O)[C@@H](O)[C@H]2O)[C@H](O)[C@@H](O)[C@H]1O` (stereo partly drawn) [beta6′-GL, Gal (beta 1-6)-Gal (beta 1-4)-Glc], the “effect on DON-induced loss” value (Caco-2 cell monolayer) is reported as “did not show a significant effect”.
In the case of `CCCC(=O)O` [butyrate, butyric acid], the “Immune cell activity as measured by WST, in words” value [1] is reported as “did not influence immune cell metabolic activity”, the “IL10 level as compared to blanc control, in words” value (human PBMC, unstimulated; 0.2% 2′-FL, 0.2 mM butyrate) is reported as “did not have an effect” and the “CCL20 level as compared to blanc control, in words” value (human PBMC, unstimulated; unstimulated PBMC) is reported as “did not have a statistically significant effect”. The “Relative IL10 level, mean (se)” value (human PBMC, unstimulated; unstimulated, 0.2% w/v 2′-FL, 0.2 mM butyrate, blanc = 1, observed) was 1.911 (0.203), the “Relative CCL 20 mean (s.e.)” value (human PBMC, unstimulated; unstimulated, 0.2% w/v 2′-FL, 0.1 w/v % 3′-GL, 0.2 mM butyrate, blanc = 1, observed) was 1.053 (0.127) and the “% TEER at 48 h” value ([2]; 48 h pre-incubation) was 79 (25) %. For the same compound, the “% TEER at 96 h (IL-4)” value ([2]; additional 48 h with IL-4 25 ng/ml) was 26 (16) %.
